The target of one experiment is T1, Tyrosinase (Homo sapiens, UniProt P14679).
T1 sequence (P14679 whole entry): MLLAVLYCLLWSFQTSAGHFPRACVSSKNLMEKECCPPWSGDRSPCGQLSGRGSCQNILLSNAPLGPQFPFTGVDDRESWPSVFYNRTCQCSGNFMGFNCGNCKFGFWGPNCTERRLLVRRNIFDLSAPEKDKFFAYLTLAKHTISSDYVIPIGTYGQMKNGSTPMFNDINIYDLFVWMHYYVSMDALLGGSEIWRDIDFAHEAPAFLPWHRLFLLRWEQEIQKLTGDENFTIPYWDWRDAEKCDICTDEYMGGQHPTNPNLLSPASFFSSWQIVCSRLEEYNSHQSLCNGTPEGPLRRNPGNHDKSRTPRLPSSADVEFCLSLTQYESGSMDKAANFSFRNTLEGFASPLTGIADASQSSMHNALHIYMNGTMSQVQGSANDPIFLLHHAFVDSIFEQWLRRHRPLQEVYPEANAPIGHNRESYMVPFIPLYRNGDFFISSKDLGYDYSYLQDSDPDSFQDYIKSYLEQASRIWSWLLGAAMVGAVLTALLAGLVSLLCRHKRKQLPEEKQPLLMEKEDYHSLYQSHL
Put plainly: Inhibition of tyrosinase (unknown origin).

Experiment [1] deals with Escherichia coli. Put plainly: Antibacterial activity against Escherichia coli. The experiment is classed as functional.
For experiment [2], the system named is Staphylococcus aureus. Put plainly: Antibacterial activity against methicillin resistant Staphylococcus aureus. The experiment is classed as functional.
Experiment [3] has as its system Staphylococcus epidermidis. Put plainly: Antibacterial activity against methicillin resistant Staphylococcus epidermidis. The experiment is classed as functional.
The test system of experiment [4] is Pseudomonas aeruginosa. The experiment in a line: Antibacterial activity against Pseudomonas aeruginosa. The experiment is classed as functional.
A further experiment relates to Klebsiella pneumoniae. The experiment in a line: Antibacterial activity against Klebsiella pneumoniae. The experiment is classed as functional.
In experiment [5] the test system is Enterococcus faecalis. Put plainly: Antibacterial activity against Enterococcus faecalis. The experiment is classed as functional.
The target of experiment [6] is T2, NAD-dependent protein deacetylase sirtuin-1 (Homo sapiens, UniProt Q96EB6).
T2 sequence (Q96EB6 whole entry): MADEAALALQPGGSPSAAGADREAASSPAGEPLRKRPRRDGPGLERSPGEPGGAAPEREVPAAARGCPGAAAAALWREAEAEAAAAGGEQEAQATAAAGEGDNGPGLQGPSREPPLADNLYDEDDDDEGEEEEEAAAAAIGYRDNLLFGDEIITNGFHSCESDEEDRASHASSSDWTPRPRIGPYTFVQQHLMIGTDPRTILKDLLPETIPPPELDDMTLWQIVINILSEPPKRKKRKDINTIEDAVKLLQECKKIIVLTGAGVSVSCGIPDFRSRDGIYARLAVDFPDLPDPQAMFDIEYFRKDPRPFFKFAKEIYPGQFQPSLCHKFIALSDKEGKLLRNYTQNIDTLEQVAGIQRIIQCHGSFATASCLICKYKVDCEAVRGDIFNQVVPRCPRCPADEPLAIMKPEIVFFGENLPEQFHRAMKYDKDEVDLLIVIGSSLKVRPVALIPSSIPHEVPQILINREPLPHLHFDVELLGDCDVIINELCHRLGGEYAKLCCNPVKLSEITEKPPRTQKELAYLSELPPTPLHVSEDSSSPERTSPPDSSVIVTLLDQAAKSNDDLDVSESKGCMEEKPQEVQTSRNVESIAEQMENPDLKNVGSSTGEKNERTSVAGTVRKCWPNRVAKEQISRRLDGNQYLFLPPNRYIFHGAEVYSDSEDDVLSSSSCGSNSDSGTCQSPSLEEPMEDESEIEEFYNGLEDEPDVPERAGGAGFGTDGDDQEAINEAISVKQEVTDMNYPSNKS
Put plainly: Inhibition of recombinant human SIRT1 after 30 mins.

Experiment [7] addresses T3, NAD-dependent protein deacetylase sirtuin-2 (Homo sapiens, UniProt Q8IXJ6).
T3 sequence (Q8IXJ6 whole entry): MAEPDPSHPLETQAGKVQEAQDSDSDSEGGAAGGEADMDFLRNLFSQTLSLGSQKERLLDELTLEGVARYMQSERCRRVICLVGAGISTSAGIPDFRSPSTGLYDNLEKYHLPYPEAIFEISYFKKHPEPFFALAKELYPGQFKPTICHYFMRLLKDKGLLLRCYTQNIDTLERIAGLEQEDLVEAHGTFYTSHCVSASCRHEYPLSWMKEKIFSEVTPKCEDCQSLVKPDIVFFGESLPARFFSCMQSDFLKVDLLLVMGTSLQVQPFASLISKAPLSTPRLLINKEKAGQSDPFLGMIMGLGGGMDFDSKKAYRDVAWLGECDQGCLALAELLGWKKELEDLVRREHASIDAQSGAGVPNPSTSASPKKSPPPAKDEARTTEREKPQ
Put plainly: Inhibition of recombinant human SIRT2 after 30 mins.

The next experiment concerns HEp-2. Put plainly: Cytotoxicity against human Hep2 cells assessed as reduction in cell viability by MTT assay. The experiment is classed as functional, cell-based. A general note: Tetrazolium assays rely on reduction of a dye to a coloured formazan, in cell work by metabolically active cells.
For experiment [8], the system named is Escherichia coli. The experiment in a line: Antibacterial activity against Escherichia coli ATCC 25922. The experiment is classed as functional.
Experiment [9] has as its system Pseudomonas aeruginosa. Put plainly: Antibacterial activity against Pseudomonas aeruginosa ATCC 27853. The experiment is classed as functional.
The test system of experiment [10] is Enterococcus faecalis. Put plainly: Antibacterial activity against Enterococcus faecalis ATCC 29212. The experiment is classed as functional.
For experiment [11], the system named is Staphylococcus aureus. Put plainly: Antibacterial activity against Staphylococcus aureus ATCC 25923. The experiment is classed as functional.
In experiment [12] the test system is Staphylococcus aureus. The experiment in a line: Antibacterial activity against methicillin resistant Staphylococcus aureus ATCC 43300. The experiment is classed as functional.
Experiment [13] relates to Mus musculus. Put plainly: Anti-inflammatory activity in xylene-induced Kunming mouse assessed as inhibition of ear edema administered as po dose 1 hr before xylene administration and measured after 1 hr xylene administration relative to control. The experiment is classed as functional. Details: scale not given: the % may be the effect or the level left.
Experiment [14] has as its system Mus musculus. The experiment in a line: Antitussive activity in ammonia aerosol-stimulated Kunming mouse assessed as inhibition of number of cough administered as po dose 1 hr before ammonia aerosol stimulation (reference value: 42). The experiment is classed as functional.
Experiment [15] deals with Staphylococcus aureus. Put plainly: Antibacterial activity against Staphylococcus aureus. The experiment is classed as functional.

From ChEMBL document CHEMBL4613206, “Recent applications of hydantoin and thiohydantoin in medicinal chemistry” (Eur J Med Chem, 2019) come the findings set out here.

≈ marks a conversion by molar mass, not a printed value.

With `COC(=O)CN1C(=O)N(CCCCN2CCN(c3ccccc3OC)CC2)C(c2ccccc2)(c2ccccc2)C1=O`, the IC50 (as a rule, the concentration needed to halve the response being measured) on Tyrosinase was determined as 1.07 µM.

On to `COc1ccccc1N1CCN(CCCCN2C(=O)N(C)C(=O)C2(c2ccccc2)c2ccccc2)CC1`, for which, at Tyrosinase, the midpoint of inhibition, the IC50, lay at 7.36 µM.

As for `CCCCCCCCCCCC(=O)N[C@@H](CCCCN)CN1CC(=O)N(c2cccc(Cl)c2)C1=O`, the MIC (usually the lowest concentration that inhibits growth of the organism) was found to be 1 µg/mL in the experiment with Escherichia coli [1]; 0.5 µg/mL (≈ 0.986 µM) against Staphylococcus aureus [2]; 0.5 µg/mL (≈ 0.986 µM) in [3]; 1 µg/mL (≈ 1.97 µM) in the experiment on Pseudomonas aeruginosa [4]; 0.78 µg/mL (≈ 1.54 µM) against Klebsiella pneumoniae; 0.5 µg/mL (≈ 0.986 µM) in the experiment on Enterococcus faecalis [5].

With `O=C1N/C(=C\c2ccc(N3CCCC3)cc2)C(=O)N1Cc1ccc(Cl)cc1`, the figures for the IC50 in experiment [6] and in [7] were 38.6 µM and 38.8 µM, respectively.

Consider `CC(C)C1NC(=O)N(OCc2cccc(Cl)c2)C1=O` (stereo unspecified), for which, in the experiment on HEp-2, the IC50 is 70 nM.

Regarding `CC(C)CC1NC(=O)N(OCc2cccc(Cl)c2)C1=O` (stereo unspecified), the IC50 with HEp-2 is 40 nM.

As to `CC(C)CC1NC(=O)N(OCc2ccc(Br)cc2)C1=O` (stereo unspecified), the IC50 in the experiment with HEp-2 stood at 150 nM.

Take `O=C1CN(/N=C2\C(=O)N(Cc3ccc(F)cc3)c3ccccc32)C(=O)N1`: the MIC with Escherichia coli [8] is 6.25 to 12.5 µg/mL (≈ 17.7 to 35.5 µM); against Pseudomonas aeruginosa [9] it was 12.5 µg/mL (≈ 35.5 µM); in the experiment on Enterococcus faecalis [10] it was 12.5 µg/mL (≈ 35.5 µM); in the experiment with Staphylococcus aureus [11] it was 6.25 µg/mL (≈ 17.7 µM); against Staphylococcus aureus [12] it was 6.25 µg/mL (≈ 17.7 µM).

`CC(C)Cc1ccc(C(C)C(=O)N2C(=O)CN(C)C2=O)cc1` (stereo unspecified): the Activity with Mus musculus [13] is 54.61%. For the same molecule, the Number of coughs in the experiment on Mus musculus [14] is 15.5.

`CCN(CC)c1ccc(/C=C2\NC(=O)N(Cc3ccc(C)cc3)C2=O)cc1`: the IC50 in experiment [6] was 94 µM; in experiment [7] it was 68.7 µM.

In the case of `O=C1CN(/N=C2\C(=O)N(Cc3ccccc3F)c3ccccc32)C(=O)N1`, the MIC against Escherichia coli [8] was 6.25 to 12.5 µg/mL (≈ 17.7 to 35.5 µM); with Pseudomonas aeruginosa [9], 12.5 µg/mL (≈ 35.5 µM); against Enterococcus faecalis [10] it was 12.5 µg/mL (≈ 35.5 µM); with Staphylococcus aureus [11] it was 6.25 µg/mL (≈ 17.7 µM); in the experiment on Staphylococcus aureus [12], 6.25 µg/mL (≈ 17.7 µM).

For the molecule `CC(C)Cc1ccc(C(C)C(=O)N2C(=O)CNC2=O)cc1` (stereo unspecified), the Activity in the experiment with Mus musculus [13] is on record as 24.51%. Further, the Number of coughs with Mus musculus [14] was 18.3.

In the case of `O=C1NC(CN2CCCC2)C(=O)N1c1c(Cl)cccc1Cl` (stereo unspecified), the figures for the MIC with Staphylococcus aureus [15] and against Escherichia coli [1] were 0.044 µM (≈ 0.0144 µg/mL) and 0.088 µM, respectively.

With `O=C1N/C(=C\c2ccc(O)c(Cl)c2)C(=O)N1Cc1ccc(F)cc1`, the IC50 turned out to be 32.1 µM in experiment [6] and 37.7 µM in experiment [7].

For `CC(C)Cc1ccc(C(C)C(=O)N2C(=O)N(C)C(C)(C)C2=O)cc1` (stereo unspecified), in the experiment with Mus musculus [13], the Activity amounted to 25%. In the experiment on Mus musculus [14], the Number of coughs was 18.6.

`O=C1CN(/N=C2\C(=O)N(Cc3cccc(F)c3)c3ccccc32)C(=O)N1`: the MIC in the experiment with Escherichia coli [8] is 6.25 to 12.5 µg/mL (≈ 17.7 to 35.5 µM); against Pseudomonas aeruginosa [9], 12.5 µg/mL (≈ 35.5 µM); against Enterococcus faecalis [10], 12.5 µg/mL (≈ 35.5 µM); against Staphylococcus aureus [11], 6.25 µg/mL (≈ 17.7 µM); against Staphylococcus aureus [12] it was 6.25 µg/mL (≈ 17.7 µM).

`CC(C)Cc1ccc(C(C)C(=O)O)cc1` (stereo unspecified) [IBUPROFEN]: the Activity with Mus musculus [13] stood at 28.07%.
